In patent US6638973B2, “Taxane formulations” (FSU Research Foundation, Inc., priority 2000, dated 2003) one finds IC50 data, which are given here for 14 molecules.

In the first assay the test system is HCT116 cells. Briefly: In vitro cytotoxicity measured by the cell colony formation assay. The assay is classed as cell-based. The settings on record: HCT116 cells, 72 h incubation with drug, colonies counted after 7 days; ID50 = drug concentration producing 50% inhibition of colony formation; read-out: IN VITRO ID 50 (nm) HCT116. An outline of the steps:
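Colony-forming survival was scored 7 days after a 72 h, 37 °C compound exposure followed by washout into fresh medium.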
Consider `COC(=O)O[C@H]1C[C@H]2OC[C@@]2(OC(C)=O)C2[C@H](OC(=O)c3ccccc3)[C@]3(O)C[C@H](OC(=O)[C@H](O)[C@@H](NC(=O)OC(C)(C)C)C4CC4)C(C)=C([C@@H](O)C(=O)[C@@]21C)C3(C)C` (some centres unmarked) [Compound 4566], for which the IC50 is under 1 nM.
For the molecule `COC(=O)O[C@H]1C[C@H]2OC[C@@]2(OC(C)=O)C2[C@H](OC(=O)c3ccccc3)[C@]3(O)C[C@H](OC(=O)[C@H](O)[C@@H](NC(=O)C=C(C)C)c4cccs4)C(C)=C([C@@H](O)C(=O)[C@@]21C)C3(C)C` (some centres unmarked) [Compound 4244], the IC50 is under 1 nM.
Still for that read-out and setting: the same measure for `CCOC(=O)O[C@H]1C(=O)[C@@]2(C)C([C@H](OC(=O)c3ccccc3)[C@]3(O)C[C@H](OC(=O)[C@H](O)[C@@H](NC(=O)C(C)C)c4ccco4)C(C)=C1C3(C)C)[C@]1(OC(C)=O)CO[C@@H]1C[C@@H]2O` (some centres unmarked) [Compound 6466]: under 10 nM.
Still for that read-out and setting: the figure for `CCOC(=O)O[C@H]1C(=O)[C@@]2(C)C([C@H](OC(=O)c3ccccc3)[C@]3(O)C[C@H](OC(=O)[C@H](O)[C@H](C=C(C)C)NC(=O)OC(C)(C)C)C(C)=C1C3(C)C)[C@]1(OC(C)=O)CO[C@@H]1C[C@@H]2O` (some centres unmarked) [Compound 1788] is under 1 nM.
Still for that read-out and setting: the same measure for `C/C=C/C(=O)N[C@@H](c1ccsc1)[C@@H](O)C(=O)O[C@H]1C[C@@]2(O)[C@@H](OC(=O)c3ccccc3)C3[C@](C)(C(=O)[C@H](O)C(=C1C)C2(C)C)[C@@H](OC(=O)OC)C[C@H]1OC[C@@]31OC(C)=O` (some centres unmarked) [Compound 4969]: under 1 nM; for `CCOC(=O)O[C@H]1C[C@H]2OC[C@@]2(OC(C)=O)C2[C@H](OC(=O)c3ccccc3)[C@]3(O)C[C@H](OC(=O)[C@H](O)[C@@H](NC(=O)OCC(C)C)c4cccs4)C(C)=C([C@@H](O)C(=O)[C@@]21C)C3(C)C` (some centres unmarked) [Compound 4363]: under 10 nM.
Take `CCOC(=O)O[C@H]1C[C@H]2OC[C@@]2(OC(C)=O)C2[C@H](OC(=O)c3ccccc3)[C@]3(O)C[C@H](OC(=O)[C@H](O)[C@@H](NC(=O)OCC(C)C)c4ccoc4)C(C)=C([C@@H](O)C(=O)[C@@]21C)C3(C)C` (some centres unmarked) [Compound 4624]: the IC50 was under 10 nM.

Still in this assay, the particulars now being: HCT116 colony formation; 72 h drug incubation, colonies counted after 7 days; Example 5, C-7 ester/C-10 hydroxy taxanes; read-out: IN VITRO ID 50 (nm) HCT116.
For the molecule `CCC(=O)O[C@H]1C[C@H]2OC[C@@]2(OC(C)=O)C2[C@H](OC(=O)c3ccccc3)[C@]3(O)C[C@H](OC(=O)[C@H](O)[C@@H](NC(=O)OC(C)(C)C)C4CC4)C(C)=C([C@@H](O)C(=O)[C@@]21C)C3(C)C` (some centres unmarked) [Compound 5070], the IC50 is under 10 nM.
Same read-out and setting: the figure for `CCC(=O)O[C@H]1C[C@H]2OC[C@@]2(OC(C)=O)C2[C@H](OC(=O)c3ccccc3)[C@]3(O)C[C@H](OC(=O)[C@H](O)[C@@H](NC(=O)OC(C)(C)C)c4ccoc4)C(C)=C([C@@H](O)C(=O)[C@@]21C)C3(C)C` (some centres unmarked) [Compound 1401] is under 1 nM.
On the same count and under the same terms, the same measure for `CCC(=O)O[C@H]1C[C@H]2OC[C@@]2(OC(C)=O)C2[C@H](OC(=O)c3ccccc3)[C@]3(O)C[C@H](OC(=O)[C@H](O)[C@@H](NC(=O)OC(C)(C)C)c4nccs4)C(C)=C([C@@H](O)C(=O)[C@@]21C)C3(C)C` (some centres unmarked) [Compound 6363]: under 10 nM; for `CCC(C)(C)OC(=O)N[C@@H](c1ccco1)[C@@H](O)C(=O)O[C@H]1C[C@@]2(O)[C@@H](OC(=O)c3ccccc3)C3[C@](C)(C(=O)[C@H](O)C(=C1C)C2(C)C)[C@@H](OC(=O)C(C)C)C[C@H]1OC[C@@]31OC(C)=O` (some centres unmarked) [Compound 6252]: under 1 nM.

Staying with this assay, now noted: HCT116 colony formation; 72 h drug incubation, colonies counted after 7 days; Example 10, C-10 ester/C-7 hydroxy taxanes; read-out: IN VITRO ID 50 (nm) HCT116.
As for `CC(=O)O[C@@]12CO[C@@H]1C[C@H](O)[C@@]1(C)C(=O)[C@H](OC(=O)C3CC3)C3=C(C)[C@@H](OC(=O)[C@H](O)[C@@H](NC(=O)OC(C)(C)C)c4ccncc4)C[C@@](O)([C@@H](OC(=O)c4ccccc4)C12)C3(C)C` (some centres unmarked) [Compound 2813], the IC50 was under 1 nM.
Still for that read-out and setting: the same measure for `CCC(=O)O[C@H]1C(=O)[C@@]2(C)C([C@H](OC(=O)c3ccccc3)[C@]3(O)C[C@H](OC(=O)[C@H](O)[C@@H](NC(=O)OC(C)(C)C)c4ccoc4)C(C)=C1C3(C)C)[C@]1(OC(C)=O)CO[C@@H]1C[C@@H]2O` (some centres unmarked) [Compound 5495]: under 1 nM; for `CC(=O)OC12COC1CC(O)C1(C)C(=O)C(OC(=O)c3ccco3)C3=C(C)C(OC(=O)C(O)C(NC(=O)OC(C)(C)C)c4ccoc4)CC(O)(C(OC(=O)c4ccccc4)C21)C3(C)C` (centres unmarked) [Compound 2159]: under 1 nM.
